Like-named read-outs stand apart in the source and are kept apart here.
Assays:
human PI3Kα protein = target: T1, human PI3Kα protein (Homo sapiens, UniProt P42336); assay: PI3Kα enzyme assay (ADP-Glo); type: biochemical; settings: read-out: PI3Kα enzyme inhibitory activity
T1 construct: purchased Carna Biosciences, Inc; host or cells: baculovirus expression system
Method in brief: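 Biotinylated human PI3Kα (baculovirus-expressed, 4.5 nmol/L) pre-incubated 15 min with compound in Tris-HCl pH 7.5, MgCl2, BSA; reaction 60 min at 25° C with 50 μmol/L PIP2 and 100 μmol/L ATP final. ADP quantified by ADP-Glo luminescence; IC50 calculated.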

[1] = target: T2, GST fusion human ERK2 protein (Homo sapiens, UniProt P28482); assay: ERK2 enzyme assay (1); type: biochemical; settings: read-out: ERK2 enzyme inhibitory activity (1)
T2 construct: purchased Carna Biosciences, Inc; host or cells: E. coli expression system
T2 sequence (P28482 whole entry, the tested form may be a part): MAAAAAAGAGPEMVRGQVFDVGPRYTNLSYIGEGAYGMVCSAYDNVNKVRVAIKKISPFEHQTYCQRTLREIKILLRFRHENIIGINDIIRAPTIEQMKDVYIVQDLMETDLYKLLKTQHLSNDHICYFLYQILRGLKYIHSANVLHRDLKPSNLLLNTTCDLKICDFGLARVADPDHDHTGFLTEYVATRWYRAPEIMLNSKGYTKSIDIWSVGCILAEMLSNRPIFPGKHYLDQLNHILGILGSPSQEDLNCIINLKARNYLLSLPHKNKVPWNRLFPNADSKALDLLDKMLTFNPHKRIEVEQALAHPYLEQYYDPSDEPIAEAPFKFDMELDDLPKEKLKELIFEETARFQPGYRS
Method in brief: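 Enzyme (2.5 nmol/L, E. coli-expressed) preincubated with compound 15 min at room temperature in HEPES/MgCl2/DTT/Brij35 buffer, pH 7.5; reaction with 4.25 μmol/L FL-Peptide 8 and 43.1 μmol/L ATP for 120 min at 25 °C. Phosphorylated peptide fraction quantified by mobility-shift separation after EDTA stop; IC50 calculated.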

CHO-K1 cells = assay: CHO cell toxicity test; type: cell-based, Chinese hamster; settings: Cricetulus griseus; CHO-K1 cells, 24 hours culture with compound, CellTiter-Glo; read-out: IC50 value (concentration at which the number of viable cells was suppressed to 50% or less)
Method in brief: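 CHO-K1 cells were cultured 24 h, then exposed 24 h to compound at final 25.00 to 0.20 μmol/L in F-12 with 2% FCS. Viability read by CellTiter-Glo luminescence; inhibition % = 100 − (treated/untreated signal)×100.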

[2] = target: T2, GST fusion human ERK2 protein; assay: ERK2 enzyme assay (2); type: biochemical; settings: ERK2 enzyme assay (2); read-out: ERK2 enzyme inhibitory activity (2)
Method in brief: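 GST-tagged human ERK2 expressed in E. coli (1.25 nmol/L) was preincubated with compound for 15 min at room temperature in pH 7.5 Hepes buffer with MgCl2, DTT and Brij35. Reaction with FL-Peptide 8 (final 4.25 μmol/L) and ATP (final 1 mmol/L) ran 120 min at 25 °C; EDTA stopped it, and phosphorylated peptide was quantified by mobility-shift separation to derive IC50.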

[3] = 4.5 nmol/L PI3Kα, PIP2 50 μmol/L, ATP 100 μmol/L
[4] = 2.5 nmol/L ERK2, ATP 43.1 μmol/L

T1 sequence (P42336 whole entry): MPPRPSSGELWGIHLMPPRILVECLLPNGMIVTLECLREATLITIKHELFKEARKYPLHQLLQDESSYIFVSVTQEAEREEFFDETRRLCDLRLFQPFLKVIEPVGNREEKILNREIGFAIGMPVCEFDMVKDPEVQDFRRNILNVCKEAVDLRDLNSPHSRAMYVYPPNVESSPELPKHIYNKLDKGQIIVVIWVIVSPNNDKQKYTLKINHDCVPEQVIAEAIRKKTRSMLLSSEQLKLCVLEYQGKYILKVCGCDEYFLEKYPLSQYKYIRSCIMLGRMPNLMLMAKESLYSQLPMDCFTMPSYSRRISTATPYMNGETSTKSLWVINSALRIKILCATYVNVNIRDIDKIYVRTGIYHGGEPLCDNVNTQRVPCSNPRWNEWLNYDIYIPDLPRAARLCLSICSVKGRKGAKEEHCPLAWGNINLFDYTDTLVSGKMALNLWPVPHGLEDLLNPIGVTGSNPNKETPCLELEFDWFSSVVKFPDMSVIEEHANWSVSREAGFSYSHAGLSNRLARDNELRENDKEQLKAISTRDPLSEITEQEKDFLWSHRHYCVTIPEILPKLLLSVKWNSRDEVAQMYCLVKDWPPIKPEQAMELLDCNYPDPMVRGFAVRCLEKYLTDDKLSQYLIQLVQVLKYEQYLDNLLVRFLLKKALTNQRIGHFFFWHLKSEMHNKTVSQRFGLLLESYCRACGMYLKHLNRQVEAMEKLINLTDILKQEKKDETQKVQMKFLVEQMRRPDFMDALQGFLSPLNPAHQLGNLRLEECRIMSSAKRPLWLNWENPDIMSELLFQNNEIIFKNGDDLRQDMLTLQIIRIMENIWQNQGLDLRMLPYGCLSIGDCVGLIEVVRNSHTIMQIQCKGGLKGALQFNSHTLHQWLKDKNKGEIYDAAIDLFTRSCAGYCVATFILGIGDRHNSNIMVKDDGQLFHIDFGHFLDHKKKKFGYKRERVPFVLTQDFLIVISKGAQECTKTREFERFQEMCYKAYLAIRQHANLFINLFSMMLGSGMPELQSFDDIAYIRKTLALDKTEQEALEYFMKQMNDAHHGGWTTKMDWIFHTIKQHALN
T1 sequence (P27986 whole entry partner): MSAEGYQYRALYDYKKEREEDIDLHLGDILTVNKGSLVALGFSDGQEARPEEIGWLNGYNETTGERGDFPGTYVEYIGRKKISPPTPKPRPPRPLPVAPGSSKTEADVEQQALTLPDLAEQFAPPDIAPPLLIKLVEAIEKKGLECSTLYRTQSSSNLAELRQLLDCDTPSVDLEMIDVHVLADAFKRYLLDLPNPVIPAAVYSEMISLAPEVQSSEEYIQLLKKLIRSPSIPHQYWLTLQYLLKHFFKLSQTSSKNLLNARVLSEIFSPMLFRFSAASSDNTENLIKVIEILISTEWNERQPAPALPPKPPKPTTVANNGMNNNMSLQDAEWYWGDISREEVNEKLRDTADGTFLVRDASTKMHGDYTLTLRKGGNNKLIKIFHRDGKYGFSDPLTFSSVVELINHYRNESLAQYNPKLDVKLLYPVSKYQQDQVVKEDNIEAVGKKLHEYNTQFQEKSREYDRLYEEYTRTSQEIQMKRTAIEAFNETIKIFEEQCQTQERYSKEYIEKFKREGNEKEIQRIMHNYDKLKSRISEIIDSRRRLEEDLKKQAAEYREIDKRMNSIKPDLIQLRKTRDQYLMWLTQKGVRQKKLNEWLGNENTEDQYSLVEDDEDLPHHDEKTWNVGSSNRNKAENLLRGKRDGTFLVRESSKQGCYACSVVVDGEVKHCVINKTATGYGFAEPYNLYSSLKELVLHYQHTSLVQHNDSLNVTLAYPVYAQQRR

Structure (SMILES)	IC50 (human PI3Kα protein)	IC50 ([1]; ERK2 enzyme assay (1))	IC50 (CHO-K1 cells)	IC50 (human PI3Kα protein; [3])	IC50 [1, 4]	IC50 [2]
CC(C)c1cnnc(Nc2ccc3ncc(-c4cnn(CCC(O)C(F)(F)F)c4)cc3n2)c1 (stereo not drawn) [Example 0400]	< 1000 nM	< 1000 nM	≥ 25000 nM			
c1nc2ccc(Nc3nnc(C4CCOCC4)s3)nc2cc1-c1cnn(CCCN2CCCC2)c1 [Example 0245]	< 1000 nM	< 1000 nM	≥ 25000 nM			
c1nc2ccc(Nc3nnc(C4CC4)s3)nc2cc1-c1cnn(CCCN2CCCC2)c1 [Example 0362]	< 1000 nM	< 1000 nM	≥ 25000 nM			
c1nc2ccc(Nc3cc(C4CCOC4)cnn3)nc2cc1-c1cnn(CCCN2CCCC2)c1 (stereo not drawn) [Example 0019, 7-(1-(3-(Pyrrolidin-1-yl)propyl)-1H-pyrazol-4-yl)-N-(5-(tetrahydrofuran-3-yl)pyridazin-3-yl)-1,5-naphthyridine-2-amine]			≥ 25000 nM	< 1000 nM	< 1000 nM	
c1nc2ccc(Nc3nnc([C@H]4CCCO4)s3)nc2cc1-c1cnn(CCCN2CCCC2)c1 [Example 0237]	< 1000 nM	< 1000 nM	≥ 25000 nM			
Cn1cc(-c2cnc3ccc(Nc4cccnn4)nc3c2)cn1 [Example 0037]			≥ 25000 nM	1000 to 10000 nM	< 1000 nM	
CN(C)CCCn1cc(-c2cnc3ccc(Nc4nncs4)nc3c2)cn1 [Example 0301]	< 1000 nM	< 1000 nM	≥ 25000 nM			
CC(C)c1cnnc(Nc2ccc3ncc(-c4cnn(CCOC5CCOCC5)c4)cc3n2)c1 [Example 0395]	< 1000 nM	< 1000 nM	≥ 25000 nM			
CCN(CC)CCCn1cc(-c2cnc3ccc(Nc4cc(C(C)C)cnn4)nc3c2)cn1 [Example 0374, 7-(1-(3-(Diethylamino)propyl)-1H-pyrazol-4-yl)-N-(5-isopropylpyridazin-3-yl)-1,5-naphthyridine-2-amine]	< 1000 nM	< 1000 nM	≥ 25000 nM			
c1nc2ccc(Nc3nnc([C@@H]4CCCO4)s3)nc2cc1-c1cnn(CCCN2CCCC2)c1 [Example 0233]	< 1000 nM	< 1000 nM	≥ 25000 nM			
CCc1nnc(Nc2ccc3ncc(-c4cnn(CCCN5CCCC5)c4)cc3n2)s1 [Example 0363]	< 1000 nM	< 1000 nM	≥ 25000 nM			
c1nc2ccc(Nc3nnc(C4CCCO4)s3)nc2cc1-c1cnn(CCCN2CCCC2)c1 (stereo not drawn) [Example 0325, N-(7-(1-(3-(pyrrolidin-1-yl)propyl)-1H-pyrazol-4-yl)-1,5-naphthyridin-2-yl)-5-(tetrahydrofuran-2-yl)-1,3,4-thiadiazole-2-amine]	< 1000 nM	< 1000 nM	≥ 25000 nM			
OCCOc1cncc(Nc2cnc3ccc(Nc4nnc(C5CCCC5)s4)nc3c2)c1 [Example 0097]			≥ 25000 nM	< 1000 nM	< 1000 nM	
c1n[nH]cc1Nc1cnc2ccc(Nc3nnc(C4CCC4)s3)nc2c1 [Example 0222, N^2-(5-cyclobutyl-1,3,4-thiadiazol-2-yl)-N^7-(1H-pyrazol-4-yl)-1,5-naphthyridine-2,7-diamine]	< 1000 nM	< 1000 nM	≥ 25000 nM			
CCCc1nn(CCCN2CCOCC2)cc1-c1cnc2ccc(Nc3cc(C(C)C)cnn3)nc2c1 [Example 0390, N-(5-isopropylpyridazin-3-yl)-7-(1-(3-morpholinopropyl)-3-propyl-1H-pyrazol-4-yl)-1,5-naphthyridine-2-amine]	< 1000 nM	< 1000 nM	≥ 25000 nM			
c1csc(Nc2ccc3ncc(-c4cnn(CCCN5CCCC5)c4)cc3n2)n1 [Example 0128]			≥ 25000 nM	< 1000 nM	< 1000 nM	
Cn1cc(-c2cnc3ccc(Nc4nnc([C@@H]5CCCO5)s4)nc3c2)cn1 [Example 0231]	< 1000 nM	< 1000 nM	≥ 25000 nM			
CC(C)c1cnnc(Nc2ccc3ncc(-c4cnn(CCCN5CCCCC5)c4)cc3n2)c1 [Example 0373, N-(5-isopropylpyridazin-3-yl)-7-(1-(3-(piperidin-1-yl)propyl)-1H-pyrazol-4-yl)-1,5-naphthyridine-2-amine]	< 1000 nM	< 1000 nM	≥ 25000 nM			

Structure (SMILES)	IC50 (human PI3Kα protein)	IC50 ([1]; ERK2 enzyme assay (1))	IC50 (CHO-K1 cells)	IC50 (human PI3Kα protein; [3])	IC50 [1, 4]	IC50 [2]
CC(C)c1cnnc(Nc2ccc3ncc(-c4ccncc4)cc3n2)c1 [Example 0406]	< 1000 nM	< 1000 nM	≥ 25000 nM			
O=S(=O)(Nc1nnc(Nc2ccc3ncc(-c4cnn(CCN5CCOCC5)c4)cc3n2)s1)c1ccccc1 [Example 0179, N-(5-((7-(1-(2-morpholinoethyl)-1H-pyrazol-4-yl)-1,5-naphthyridin-2-yl)amino)-1,3,4-thiadiazol-2-yl)benzene sulfonamide]			≥ 25000 nM	< 1000 nM	< 1000 nM	
c1nc2ccc(Nc3nnc(C4CCOC4)s3)nc2cc1-c1cnn(CCCN2CCCC2)c1 (stereo not drawn) [Example 0238]	< 1000 nM	< 1000 nM	≥ 25000 nM			
CC(C)c1cnnc(Nc2ccc3ncc(-c4cnn(CCCN5CCS(=O)(=O)CC5)c4)cc3n2)c1 [Example 0417, 4-(3-(4-(6-((5-isopropylpyridazin-3-yl)amino)-1,5-naphthyridin-3-yl)-1H-pyrazol-1-yl)propyl)thiomorpholine 1,1-dioxide]	< 1000 nM		≥ 25000 nM			< 1000 nM
CC(C)c1cnnc(Nc2ccc3ncc(-c4cnn(CCCN5C[C@@H](C)O[C@@H](C)C5)c4)cc3n2)c1 [Example 0615]	< 1000 nM		≥ 25000 nM			< 1000 nM
Cn1cc(-c2cnc3ccc(Nc4nnc([C@H]5CCCO5)s4)nc3c2)cn1 [Example 0232]	< 1000 nM	< 1000 nM	≥ 25000 nM			
CC(C)c1cnnc(Nc2ccc3ncc(-c4cnn(CCCN5CC(N)C5)c4)cc3n2)c1 [Example 0695, 7-(1-(3-(3-aminoazetidin-1-yl)propyl)-1H-pyrazol-4-yl)-N-(5-isopropylpyridazin-3-yl)-1,5-naphthyridine-2-amine]	< 1000 nM		≥ 25000 nM			< 1000 nM
CC(C)c1cnnc(Nc2ccc3ncc(-c4cn(C)nc4C(F)F)cc3n2)c1 [Example 0635]	< 1000 nM		≥ 25000 nM			< 1000 nM
COCC1COCCN1CCCn1cc(-c2cnc3ccc(Nc4cc(C(C)C)cnn4)nc3c2)cn1 (stereo not drawn) [Example 0691]	< 1000 nM		≥ 25000 nM			< 1000 nM
CC(C)c1cnnc(Nc2ccc3ncc(-c4cn(C)nc4-c4ccc(C#N)nc4)cc3n2)c1 [Example 0455]	< 1000 nM		≥ 25000 nM			< 1000 nM
CCN(c1cnnc(Nc2ccc3ncc(-c4cnn(C)c4)cc3n2)c1)C(C)C [Example 0500]	< 1000 nM		≥ 25000 nM			< 1000 nM
Cc1nnc(Nc2ccc3ncc(-c4cnn(CCCN(C)C)c4)cc3n2)s1 [Example 0302]	< 1000 nM	< 1000 nM	≥ 25000 nM			
CC(C)c1cnnc(Nc2ccc3ncc(-c4cnn(CC5CCN(C)CC5)c4)cc3n2)c1 [Example 0486, N-(5-isopropylpyridazin-3-yl)-7-(1-((1-methylpiperidin-4-yl)methyl)-1H-pyrazol-4-yl)-1,5-naphthyridine-2-amine]	< 1000 nM		≥ 25000 nM			< 1000 nM
c1nnc(Nc2ccc3ncc(-c4cnn(CCCN5CCOCC5)c4)cc3n2)s1 [Example 0001, N-(7-(1-(3-morpholinopropyl)-1H-pyrazol-4-yl)-1,5-naphthyridin-2-yl)-1,3,4-thiadiazole-2-amine]			≥ 25000 nM	< 1000 nM	< 1000 nM	
CC(C)c1cnnc(Nc2ccc3ncc(-c4cnn(Cc5ccc(N6CCOCC6)nc5)c4)cc3n2)c1 [Example 0462, N-(5-isopropylpyridazin-3-yl)-7-(1-((6-morpholinopyridin-3-yl)methyl)-1H-pyrazol-4-yl)-1,5-naphthyridine-2-amine]	< 1000 nM		≥ 25000 nM			< 1000 nM
CC(C)(CO)c1cnnc(Nc2ccc3ncc(-c4cnn(CCCN5CCCC5)c4)cc3n2)c1 [Example 0405, 2-methyl-2-(6-((7-(1-(3-(pyrrolidin-1-yl)propyl)-1H-pyrazol-4-yl)-1,5-naphthyridin-2-yl)amino)pyridazin-4-yl)propan-1-ol]	< 1000 nM	< 1000 nM	≥ 25000 nM			
CC(C)c1cnnc(Nc2ccc3ncc(-c4cnn(CC5CCN(S(C)(=O)=O)CC5)c4)cc3n2)c1 [Example 0530]	< 1000 nM		≥ 25000 nM			< 1000 nM
CC(C)c1cnnc(Nc2ccc3ncc(-c4cnn(CCCN5CCC(O)CC5)c4)cc3n2)c1 [Example 0430]	< 1000 nM		≥ 25000 nM			< 1000 nM
